# Experimental data taken from patent publication US20210317134A1, “UBIQUITIN-SPECIFIC-PROCESSING PROTEASE 7 (USP7) MODULATORS AND USES THEREOF” (RAPT THERAPEUTICS, INC., priority 2019, published 2021).
# Target: USP7 (Homo sapiens, UniProt Q93009)
# Assay: USP7 inhibitory potency (Table 1)
# Format: biochemical
# Chain of USP7 (Q93009 whole entry): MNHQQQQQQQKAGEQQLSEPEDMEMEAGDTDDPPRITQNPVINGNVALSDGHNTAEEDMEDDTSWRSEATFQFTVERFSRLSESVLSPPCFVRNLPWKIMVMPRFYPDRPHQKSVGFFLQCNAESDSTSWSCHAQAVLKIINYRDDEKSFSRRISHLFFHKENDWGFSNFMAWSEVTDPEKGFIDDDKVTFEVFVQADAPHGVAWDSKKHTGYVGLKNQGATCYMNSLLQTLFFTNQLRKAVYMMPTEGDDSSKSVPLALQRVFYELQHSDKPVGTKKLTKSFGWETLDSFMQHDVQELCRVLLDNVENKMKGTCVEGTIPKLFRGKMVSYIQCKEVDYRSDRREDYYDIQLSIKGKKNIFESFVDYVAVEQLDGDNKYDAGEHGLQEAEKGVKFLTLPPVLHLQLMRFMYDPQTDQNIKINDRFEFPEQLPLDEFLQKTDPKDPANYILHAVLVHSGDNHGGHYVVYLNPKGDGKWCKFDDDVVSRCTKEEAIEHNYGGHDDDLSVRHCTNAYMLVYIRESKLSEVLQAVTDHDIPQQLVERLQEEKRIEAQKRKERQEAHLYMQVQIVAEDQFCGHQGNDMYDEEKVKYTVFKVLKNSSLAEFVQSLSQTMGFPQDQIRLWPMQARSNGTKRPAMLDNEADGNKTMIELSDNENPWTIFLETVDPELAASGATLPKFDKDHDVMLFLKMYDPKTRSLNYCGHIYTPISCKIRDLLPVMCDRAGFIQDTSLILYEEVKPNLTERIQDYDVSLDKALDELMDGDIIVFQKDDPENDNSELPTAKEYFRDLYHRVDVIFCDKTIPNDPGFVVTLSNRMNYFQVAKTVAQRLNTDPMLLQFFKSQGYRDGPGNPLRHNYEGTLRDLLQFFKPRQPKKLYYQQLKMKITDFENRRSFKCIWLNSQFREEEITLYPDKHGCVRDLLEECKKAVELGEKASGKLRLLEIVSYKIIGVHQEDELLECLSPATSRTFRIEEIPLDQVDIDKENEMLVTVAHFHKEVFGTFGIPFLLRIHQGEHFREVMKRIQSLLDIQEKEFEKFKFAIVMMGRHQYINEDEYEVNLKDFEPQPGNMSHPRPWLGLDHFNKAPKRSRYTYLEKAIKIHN
row,IC50,Structure (SMILES)
1,1 to 10 µM,"N#Cc1ccc2nccc(-c3cc(Cl)cc4c3O[C@@H](c3onc5c3CNCC5)C4)c2c1 [(R)-4-(5-chloro-2-(4,5,6,7-tetrahydroisoxazolo[4,3-c]pyridin-3-yl)-2,3-dihydrobenzofuran-7-yl)quinoline-6-carbonitrile]"
2,< 1 µM,"Cn1nc2c(c1[C@H]1Cc3cc(Cl)cc(-c4ccnc5ccsc45)c3O1)CNCC2 [(R)-7-(5-chloro-2-(2-methyl-4,5,6,7-tetrahydro-2H-pyrazolo[4,3-c]pyridin-3-yl)-2,3-dihydrobenzofuran-7-yl)thieno[3,2-b]pyridine]"
3,< 1 µM,"NS(=O)(=O)CCc1cc2nccc(-c3cc(Cl)cc4c3O[C@@H](C(=O)N3CCNCC3)C4)c2s1 [(R)-2-(7-(5-chloro-2-(piperazine-1-carbonyl)-2,3-dihydrobenzofuran-7-yl)thieno[3,2-b]pyridin-2-yl)ethane-1-sulfonamide]"
4,< 1 µM,"OCc1cc2ncnc(-c3cc(Cl)cc4c3O[C@@H](c3onc5c3CNCC5)C4)c2o1 [(R)-(4-(5-chloro-2-(4,5,6,7-tetrahydroisoxazolo[4,3-c]pyridin-3-yl)-2,3-dihydrobenzofuran-7-yl)furo[3,2-d]pyrimidin-6-yl)methanol]"
5,< 1 µM,"CN(C)C1CN(C(=O)[C@H]2Cc3cc(Cl)cc(-c4ccnc5cc(CO)sc45)c3O2)C1 [(R)-(5-chloro-7-(2-(hydroxymethyl)thieno[3,2-b]pyridin-7-yl)-2,3-dihydrobenzofuran-2-yl)(3-(dimethylamino)azetidin-1-yl)methanone]"
6,< 1 µM,"O=C1CCC(=O)N1Cc1cc2ncnc(-c3cc(Cl)cc4c3O[C@@H](c3onc5c3CNCC5)C4)c2o1 [(R)-1-((4-(5-chloro-2-(4,5,6,7-tetrahydroisoxazolo[4,3-c]pyridin-3-yl)-2,3-dihydrobenzofuran-7-yl)furo[3,2-d]pyrimidin-6-yl)methyl)pyrrolidine-2,5-dione]"
7,< 1 µM,"CN1CC(=O)N(Cc2cc3nccc(-c4cc(Cl)cc5c4O[C@@H](C(=O)N4CCNCC4)C5)c3s2)C1=O [(R)-3-((7-(5-chloro-2-(piperazine-1-carbonyl)-2,3-dihydrobenzofuran-7-yl)thieno[3,2-b]pyridin-2-yl)methyl)-1-methylimidazolidine-2,4-dione]"
8,< 1 µM,"O=C1CCC(=O)N1Cc1cc2ncnc(-c3cc(Cl)cc4c3O[C@@H](c3onc5c3CNCC5)C4)c2s1 [(R)-1-((4-(5-chloro-2-(4,5,6,7-tetrahydroisoxazolo[4,3-c]pyridin-3-yl)-2,3-dihydrobenzofuran-7-yl)thieno[3,2-d]pyrimidin-6-yl)methyl)pyrrolidine-2,5-dione]"
9,< 1 µM,"Fc1ccc2nccc(-c3cc(Cl)cc4c3O[C@@H](c3onc5c3CNCC5)C4)c2c1 [(R)-3-(5-chloro-7-(6-fluoroquinolin-4-yl)-2,3-dihydrobenzofuran-2-yl)-4,5,6,7-tetrahydroisoxazolo[4,3-c]pyridine]"
10,1 to 10 µM,"CC(=O)NCC1Cc2nccc(-c3cc(Cl)cc4c3O[C@@H](C(=O)N3CCNCC3)C4)c2C1 (stereo partly drawn) [N-((4-((R)-5-chloro-2-(piperazine-1-carbonyl)-2,3-dihydrobenzofuran-7-yl)-6,7-dihydro-5H-cyclopenta[b]pyridin-6-yl)methyl)acetamide]"

# Continued, molecule first:
row,Structure (SMILES),IC50
1,"O=C1CCC(=O)N1Cc1cc2nccc(-c3cc(Cl)cc4c3O[C@@H](c3onc5c3CC(N3CCC3)CC5)C4)c2s1 (stereo partly drawn) [1-((7-((2R)-2-(5-(azetidin-1-yl)-4,5,6,7-tetrahydrobenzo[c]isoxazol-3-yl)-5-chloro-2,3-dihydrobenzofuran-7-yl)thieno[3,2-b]pyridin-2-yl)methyl)pyrrolidine-2,5-dione]",< 1 µM
2,"N#Cc1ccc2nccc(-c3cc(Cl)cc4c3OC(C(=O)N3CCNCC3)C4)c2c1 (stereo not drawn) [4-(5-chloro-2-(piperazine-1-carbonyl)-2,3-dihydrobenzofuran-7-yl)quinoline-6-carbonitrile]",10 to 30 µM
3,"O=C(C1Cc2cc(Cl)cc(-c3ccnc4ccc(Cl)cc34)c2O1)N1CCNCC1 (stereo not drawn) [(5-chloro-7-(6-chloroquinolin-4-yl)-2,3-dihydrobenzofuran-2-yl)(piperazin-1-yl)methanone]",10 to 30 µM
4,"CC[C@@H](O)c1cc2nccc(-c3cc(Cl)cc4c3O[C@@H](C(=O)N3CCNCC3)C4)c2s1 [((R)-5-chloro-7-(2-((R)-1-hydroxypropyl)thieno[3,2-b]pyridin-7-yl)-2,3-dihydrobenzofuran-2-yl)(piperazin-1-yl)methanone]",< 1 µM
5,"CCC(O)c1cc2nccc(-c3cc(Cl)cc4c3OC(c3onc5c3CNCC5)C4)n2n1 (stereo not drawn) [1-(7-(5-chloro-2-(4,5,6,7-tetrahydroisoxazolo[4,3-c]pyridin-3-yl)-2,3-dihydrobenzofuran-7-yl)pyrazolo[1,5-a]pyrimidin-2-yl)propan-1-ol]",1 to 10 µM
6,"CN(C)[C@H]1CCN(C(=O)[C@H]2Cc3cc(Cl)cc(-c4ccnc5cc(CO)sc45)c3O2)C1 [((R)-5-chloro-7-(2-(hydroxymethyl)thieno[3,2-b]pyridin-7-yl)-2,3-dihydrobenzofuran-2-yl)((S)-3-(dimethylamino)pyrrolidin-1-yl)methanone]",1 to 10 µM
7,"CCC(CO)c1cc2nccc(-c3cc(Cl)cc4c3O[C@@H](C(=O)N3CCNCC3)C4)c2s1 (stereo partly drawn) [((2R)-5-chloro-7-(2-(1-hydroxybutan-2-yl)thieno[3,2-b]pyridin-7-yl)-2,3-dihydrobenzofuran-2-yl)(piperazin-1-yl)methanone]",< 1 µM
8,"CCC(O)c1cc2nccc(-c3cc(Cl)cc4c3O[C@@H](c3c5c(nn3C)CCNC5)C4)c2s1 (stereo partly drawn) [1-(7-((R)-5-chloro-2-(2-methyl-4,5,6,7-tetrahydro-2H-pyrazolo[4,3-c]pyridin-3-yl)-2,3-dihydrobenzofuran-7-yl)thieno[3,2-b]pyridin-2-yl)propan-1-ol]",< 1 µM
9,"CC(O)(CO)c1cc2nccc(-c3cc(Cl)cc4c3O[C@@H](C(=O)N3CCNCC3)C4)c2s1 (stereo partly drawn) [((2R)-5-chloro-7-(2-(1,2-dihydroxypropan-2-yl)thieno[3,2-b]pyridin-7-yl)-2,3-dihydrobenzofuran-2-yl)(piperazin-1-yl)methanone]",< 1 µM
10,"C[C@@H]1CNCCN1C(=O)C1Cc2cc(Cl)cc(-c3ccnc4[nH]ccc34)c2O1 (stereo partly drawn) [(5-chloro-7-(1H-pyrrolo[2,3-b]pyridin-4-yl)-2,3-dihydrobenzofuran-2-yl)((R)-2-methylpiperazin-1-yl)methanone]",10 to 30 µM
11,"O=C(C1Cc2cc(Cl)cc(-c3ccnc(O)c3)c2O1)N1CCNCC1 (stereo not drawn) [(5-chloro-7-(2-hydroxypyridin-4-yl)-2,3-dihydrobenzofuran-2-yl)(piperazin-1-yl)methanone]",1 to 10 µM
12,"C=CCC1(C(=O)N2CCNCC2)Cc2cc(Cl)cc(-c3ccnc4[nH]ccc34)c2O1 (stereo not drawn) [(2-allyl-5-chloro-7-(1H-pyrrolo[2,3-b]pyridin-4-yl)-2,3-dihydrobenzofuran-2-yl)(piperazin-1-yl)methanone]",10 to 30 µM
13,"CCC(O)c1cc2nccc(-c3cc(Cl)cc4c3O[C@@H](c3ocnc3CN3CCOCC3)C4)c2s1 (stereo partly drawn) [1-(7-((R)-5-chloro-2-(4-(morpholinomethyl)oxazol-5-yl)-2,3-dihydrobenzofuran-7-yl)thieno[3,2-b]pyridin-2-yl)propan-1-ol]",1 to 10 µM
14,"NC(=O)c1c[nH]c2nccc(-c3cc(Cl)cc4c3OC(C(=O)N3CCNCC3)C4)c12 (stereo not drawn) [4-(5-chloro-2-(piperazine-1-carbonyl)-2,3-dihydrobenzofuran-7-yl)-1H-pyrrolo[2,3-b]pyridine-3-carboxamide]",1 to 10 µM
